Data set [1] in a line: Circular dichroism, degree of helicity. Type of data set: physicochemical. The following applies: CD, PB pH 7.2, 10–50 mmol/L peptide, ambient temperature, 1-mm path length, 185–255 nm. As for the experimental part:
The staple peptides were soluble in PB with a pH of 7.2 at a concentration of 10–50 mmol/L. CD experiments were performed using a Jasco J-715 Spectropolarimeter at ambient temperature. A quartz cuvette with a 1-mm path length was used for the spectrum collection (wavelength, 185–255 nm; step resolution, 0.0001 mm; speed, 1.2 μm/h; accumulations, 6; and bandwidth, 0.0001 mm). We calculated the helicity of each peptide using Eq.
A general note: CD spectra are sensitive to the conformation of chiral molecules.

Data set [2] is described as follows: circular dichroism. The settings on record: phosphate buffer (PB); pH 7.2; ns °C; 10-50 (printed mmol/L, probably uM).
The subject of data set [3] is U251. The settings on record: for IC50: 72 h; for concentration at which in vitro anti-tumor activity was exhibited: U251 tumor cells, CCK-8.
Data set [4] has as its system HCT116 p53^+/+. The settings on record: 72 h.
For data set [5], the system named is U87 MG. The settings on record: for IC50: 72 h; for concentration at which in vitro anti-tumor activity was exhibited: U87 MG tumor cells, CCK-8.
Data set [6] deals with HCT116 p53^−/−. The settings on record: 72 h.
Data set [7] has as its system tumor cells. The data set is described as follows: Cytotoxicity / cell viability assay (CCK-8), cell line not given. Type of data set: cell-based, human. The settings on record: for concentration at which in vitro anti-tumor activity was exhibited: compared to linear peptide M3-1, cell line not named; for anti-proliferative / tumor suppressive activity (in words): HCT116 p53^+/+, HCT116 p53−/−, U87 and U251 cell viability experiments, versus template straight-chain peptide. As for the experimental part: Human colon cancer cell lines HCT116 p53^+/+, HCT116 p53^−/−, U87 MG, and U251 were maintained in McCoy’s 5A Medium supplemented with 10% heat-inactivated FCS and 1% penicillin–streptomycin at 37°C, 5% CO2, and under complete humidification conditions. The cells (3×10^3 cells/well) were inoculated in 96-well plates and treated with different concentrations of polypeptides for 72 h. The absorbance at 450 nm was then measured using the CCK-8 Kit, and the percentage of cell survival was calculated based on the ratio of the sample well to the reference well A450.

Positions of bridges follow the written chain, without caps; N, C: chain ends. Non-standard residues stand in square brackets, D forms with d. Residues, ends and D or L forms follow the SMILES beside them. R8 = C=CCCCCCC[C@@](C)(N)C(=O)O; S5 = C=CCCC[C@](C)(N)C(=O)O

What is called IC50 is the concentration needed to halve the response being measured. Low values mean higher potency, high ones lower potency. Consider `CSCC[C@H](NC(=O)[C@H](CC(C)C)NC(=O)[C@H](CCC(N)=O)NC(=O)[C@H](C)NC(=O)[C@H](Cc1c[nH]c2ccccc12)NC(=O)[C@H](Cc1ccc(O)cc1)NC(=O)[C@]1(C)CCCC=CCCC[C@](C)(NC(=O)[C@H](CCCCN)NC(C)=O)C(=O)N[C@@H]([C@@H](C)O)C(=O)N[C@@H](Cc2ccccc2)C(=O)N[C@@H](CC(C)C)C(=O)N1)C(=O)N[C@@H](CCC(N)=O)C(=O)N[C@@H](CCCCN)C(N)=O` [SM3-1] (Ac-K[S5]TFL[S5]YWAQLMQK-NH2; staple 2-6), for which the helicity in data set [1] is 42.36%; in data set [2], 42.4%. For the same molecule, the IC50 in data set [3] came out at 22.6 µM; in data set [4], 118 µM; in data set [5] it was 19 µM; in data set [6] it was 54.8 µM. Besides, the “concentration at which in vitro anti-tumor activity was exhibited” value (shortened to “concentration at which”) in data set [3] is 50 µM; in data set [5], 25 µM; in data set [7] it was 25 µM.

For `CSCC[C@H](NC(=O)[C@H](CC(C)C)NC(=O)[C@H](CCC(N)=O)NC(=O)[C@H](C)NC(=O)[C@H](Cc1c[nH]c2ccccc12)NC(=O)[C@]1(C)CCCC=CCCC[C@](C)(NC(=O)[C@H](CC(C)C)NC(=O)[C@H](CCCCN)NC(C)=O)C(=O)N[C@@H](Cc2ccccc2)C(=O)N[C@@H](CC(C)C)C(=O)N[C@@H](CCC(=O)O)C(=O)N1)C(=O)N[C@@H](CCC(N)=O)C(=O)N[C@@H](CCCCN)C(N)=O` [SM3-2] (Ac-KL[S5]FLE[S5]WAQLMQK-NH2; staple 3-7), the helicity in data set [1] and in data set [2] was 5.85% in each case. Besides, the IC50 turned out to be 48.7 µM in data set [3], 34.4 µM in data set [4], 30.7 µM in data set [5] and 24 µM in data set [6]. In addition, the figures for the “concentration at which” value in data set [3], in data set [5] and in data set [7] were 50 µM, 25 µM and 25 µM, respectively. Further, the “anti-proliferative / tumor suppressive activity (in words)” value in data set [7] is listed as “significantly improved”.

On to `CSCC[C@H](NC(=O)[C@H](CC(C)C)NC(=O)[C@H](CCC(N)=O)NC(=O)[C@]1(C)CCCC=CCCC[C@](C)(NC(=O)[C@H](Cc2ccccc2)NC(=O)[C@@H](NC(=O)[C@H](CC(C)C)NC(=O)[C@H](CCCCN)NC(C)=O)[C@@H](C)O)C(=O)N[C@@H](CCC(=O)O)C(=O)N[C@@H](Cc2ccc(O)cc2)C(=O)N[C@@H](Cc2c[nH]c3ccccc23)C(=O)N1)C(=O)N[C@@H](CCC(N)=O)C(=O)N[C@@H](CCCCN)C(N)=O` [SM3-3] (Ac-KLTF[S5]EYW[S5]QLMQK-NH2; staple 5-9), for which the helicity in data set [1] was found to be 38.10%; in data set [2], 38.1%. Further, the IC50 in data set [3] came out at 93 µM; in data set [4] it was 15.6 µM; in data set [5], 47.5 µM; in data set [6] it was 25.8 µM. Also, the “concentration at which” value worked out at 100 µM in data set [3], 50 µM in data set [5] and 25 µM in data set [7].

Turning to `CSCC[C@@H]1NC(=O)[C@H](CC(C)C)NC(=O)[C@H](CCC(N)=O)NC(=O)[C@@](C)(NC(=O)[C@H](Cc2c[nH]c3ccccc23)NC(=O)[C@H](Cc2ccc(O)cc2)NC(=O)[C@H](CCC(=O)O)NC(=O)[C@H](CC(C)C)NC(=O)[C@H](Cc2ccccc2)NC(=O)[C@@H](NC(=O)[C@H](CC(C)C)NC(=O)[C@H](CCCCN)NC(C)=O)[C@@H](C)O)CCCC=CCCC[C@@](C)(C(=O)N[C@@H](CCCCN)C(N)=O)NC1=O` [SM3-5] (Ac-KLTFLEYW[S5]QLM[S5]K-NH2; staple 9-13), the helicity stood at 42.85% in data set [1] and 42.9% in data set [2]. The 50% inhibitory concentration (IC50) in data set [3] came out at 35.9 µM; in data set [4], 27.3 µM; in data set [5], 31.2 µM; in data set [6] it was 27.4 µM. Further, the “concentration at which” value in data set [3] was 50 µM; in data set [5], 25 µM; in data set [7] it was 25 µM. In addition, the “anti-proliferative / tumor suppressive activity (in words)” value in data set [7] is “significantly improved”.

With `CC(=O)N[C@@H](CCCCN)C(=O)N[C@@H](CC(C)C)C(=O)N[C@H](C(=O)N[C@@H](Cc1ccccc1)C(=O)N[C@]1(C)CCCCCCC=CCCC[C@@](C)(C(=O)N[C@@H](CCC(N)=O)C(=O)N[C@@H](CCCCN)C(N)=O)NC(=O)[C@H](CC(C)C)NC(=O)[C@H](CCC(N)=O)NC(=O)[C@H](C)NC(=O)[C@H](Cc2c[nH]c3ccccc23)NC(=O)[C@H](Cc2ccc(O)cc2)NC(=O)[C@H](CCC(=O)O)NC1=O)[C@@H](C)O` [SM3-8] (Ac-KLTF[R8]EYWAQL[S5]QK-NH2; staple 5-12), the helicity in data set [1] is 52.02%. The IC50 in data set [3] was determined as 94.2 µM; in data set [4], 17.6 µM; in data set [5], 45 µM; in data set [6], 17.9 µM. Also, the “concentration at which” value in data set [3] came out at 100 µM; in data set [5] it was 50 µM; in data set [7], 25 µM.

As for Ac-KLTFLEYWAQLMQK-NH2, the helicity in data set [2] turned out to be 0.54%.
